From the OPERA property sets (Mansouri et al. 2018)
≈ marks a conversion by molar mass, not a printed value.

SMILES | logP | solubility
NS(=O)(=O)c1cc(C2(O)NC(=O)c3ccccc32)ccc1Cl (stereo not given) | 0.85 | –
Cc1cc(Cl)ccc1OCC(=O)O | 3.25 | –
Oc1ccc(Cl)cc1Cc1ccccc1 | 3.6 | 0.681 mM (≈ 149 µg/mL)
C=COCCn1cnc2[nH]c(=O)n(C)c(=N)c21 | -0.78 | –
NS(=O)(=O)c1cc2c(cc1Cl)NC(C1CC3C=CC1C3)NS2(=O)=O (stereo not given) | 1.95 | –
CC(CCC(=O)NCC(=O)O)C1CCC2C3C(O)CC4CC(O)CCC4(C)C3CCC12C (stereo not given) | 2.12 | –
COC(=O)C(C)=CC1C(C(=O)OC)C1(C)C (stereo not given) | 2.67 | –
COc1ccc(C(N)=S)cc1 | 1.63 | –
CCCCCCC | 4.66 | –
C#CCN(C)C(C)Cc1ccc(F)cc1 (stereo not given) | 3 | –
Nc1ccc([N+](=O)[O-])cn1 | 0.65 | –
Cc1ccc([N+](=O)[O-])cc1C | 2.91 | –
CCOC1OC2OC3(C)CCC4C(C)C(O)CC(C1C)C24OO3 (stereo not given) | 2.14 | –
Clc1ccc(Cl)nn1 | 0.7 | –
COc1ccc(C(=O)CS(=O)(=O)c2ccccc2)cc1 | 2.18 | –
Clc1ccc2cccc(Cl)c2c1 | 4.56 | –
Cc1cnc2c(C(=O)O)c(Cl)ccc2c1 | 0.78 | –
CCC(=O)OCC1OC(n2cnc3c(OC)ncnc32)C(OC(=O)CC)C1OC(=O)CC (stereo not given) | 2.75 | –
Nc1nc(=O)n([C@H]2CC[C@@H](CO)O2)cc1Br | -0.5 | –
O=C1CCC2CCC(=O)N12 | -1.11 | –
Brc1ccc(O[Si]23OCCN(CCO2)CCO3)cc1 | 0.58 | –
CC(C)(O)C(=O)Nc1ccc([N+](=O)[O-])c(C(F)(F)F)c1 | 2.7 | –
CCCCCCCc1ccccc1 | 5.37 | –
Cc1ncc(CO)c(C=O)c1O.Cl | – | 2460 mM
c1ccc2c(c1)Cc1cc3ccccc3cc1-2 | 5.77 | –
COc1cc(Cl)c(Cl)cc1Cl | 3.85 | –
Cc1cn([C@H]2C[C@H](N=[N+]=[N-])[C@@H](CO)O2)c(=O)[nH]c1=S | 1.07 | –

SMILES | logP | solubility
NCCCN1c2ccccc2Sc2ccc(Cl)cc21 | 4.47 | –
O=[N+]([O-])c1c(Cl)cc(Cl)cc1Cl | 3.69 | –
Cn1cnc([N+](=O)[O-])c1I | 1 | –
Clc1ccc(Cn2cncn2)cc1Cl | 2.54 | –
CCOC(=O)COc1cccc2ccccc12 | 2.9 | –
CSc1ccc(C=C(C#N)C#N)o1 | 2.45 | –
OCc1c(Cl)cccc1Cl | 2.02 | –
COc1ccc(N=c2snc3sc(S(N)(=O)=O)nn23)cc1 | 2.93 | –
CNC(N)=S | -0.69 | –
C=C(C)C1CC=C(C)CC1 (stereo not given) | 4.57 | –
CCCN(CCC)C1COc2ccc(O)cc2C1 (stereo not given) | 3.19 | –
Cc1nc(NCc2ccccc2)nc(C(Cl)(Cl)Cl)n1 | 3.86 | –
COC(=O)[C@@H](N)Cc1ccc(O)c(O)c1 | -0.21 | –
N#Cc1cc(-c2ccncc2)cnc1Cl | 1.74 | –
Clc1cc(Cl)c2[nH]c3c(Cl)cc(Cl)cc3c2c1 | 5.75 | –
Cc1ccc(S(=O)(=O)CC(=O)c2ccccc2)cc1 | 2.45 | –
Cc1ccccc1OCCNc1ccccc1C(N)=O | 2.94 | –
OCc1cc(Cl)cc(Cl)c1 | 2.9 | –
Cc1ccc(S(=O)(=O)CC(=O)c2ccc(Cl)cc2)cc1 | 3.43 | –
CCCCc1c(C)nc(NCC)nc1O | 2.22 | –
CCn1ccc(=O)c(O)c1 | -0.4 | –
Nc1c(Oc2ccccc2)c(Oc2ccccc2)c(N)c2c1C(=O)c1ccccc1C2=O | 5.19 | –
CC(C(=O)Nc1ccc([N+](=O)[O-])c(C(F)(F)F)c1)C(F)(F)F (stereo not given) | 3.71 | –
CN1CCCC1=O | -0.38 | –
CC(CO)CO | 0.24 | –
CCCCCCCCCC | 5.01 | –
COC(=O)C(C#N)=Cc1ccco1 | 1.65 | –

SMILES | logP | solubility
NCCc1nc(-c2ccccc2)cs1 | 2.22 | –
NS(=O)(=O)c1cc2cc(CN3CCOCC3)sc2o1 | 0.88 | –
CCCCN(C)C(=O)Nc1ccc(Cl)c(Cl)c1 | 4.1 | –
CC(C)COC(=O)n1c(-c2cscn2)nc2ccccc21 | 3.46 | –
N[C@@H](Cc1ccc(O)c(O)c1)C(=O)OCCOc1ccccc1 | 1.51 | –
NC(=O)c1ccccc1NCC(O)CO (stereo not given) | -0.8 | –
COc1c2ccoc2cc2oc(=O)ccc12 | 1.93 | –
Cl.Cl.O=C1c2c(O)ccc(O)c2C(=O)c2c(NCCNCCO)ccc(NCCNCCO)c21 | – | 14.5 mM
Cc1ccc(C(=O)CS(=O)(=O)c2ccc(C)cc2)cc1 | 3.3 | –
O=C(O)CN(CC(=O)O)Cc1cc2c(c(O)c1O)C(=O)c1ccccc1C2=O | – | 15.6 mM (≈ 6000 µg/mL)
N#Cc1cc(-c2ccncc2)cnc1NCCO | 1.17 | –
CC(=O)Oc1ccc(N(C)C(=O)C(Cl)Cl)cc1 | 1.56 | –
CCCCCOC(=O)c1cc(=O)[nH]c(=O)[nH]1 | 1.62 | –
CCCCCCN1CCCC1=O | 2.6 | –
Cc1cn(C2CC(O)C(CN)O2)c(=O)[nH]c1=O (stereo not given) | -2.05 | –
COC1=CC(=O)C=CC1=O | -0.06 | –
ClC1=C(Cl)C2(Cl)C3C(Cl)C=CC3C1(Cl)C2(Cl)Cl (stereo not given) | 6.1 | –
N#CCCCC#N | -0.72 | –
O=C(O)CCCCn1nc2ccccc2n1 | 0.94 | –
N#Cc1c(Cl)c(Cl)c(Cl)c(C#N)c1Cl | 3.05 | –
CC(=O)N[C@@H](C)C(=O)N[C@@H](C)C(N)=O | -2 | –
Brc1cccc(-c2ccccc2)c1 | 4.85 | –
O=Cc1ccc(F)cc1 | 1.54 | –
Oc1ccc(O)cc1 | – | 654 mM (≈ 72000 µg/mL)
CNC(=O)CCc1c[nH]c2ccccc12 | 1.23 | –
